The target in one data set is SRC (Homo sapiens (Human), UniProt P12931). Nature of the data set: Enzymatic inhibitory activity, mobility shift assay, SRC. The settings on record: read-out: SRC IC50; kinase mobility shift assay.
The target in a further data set is CSF1R (Homo sapiens (Human), UniProt P07333). Nature of the data set: Enzymatic inhibitory activity, mobility shift assay, CSF1R. The settings on record: kinase mobility shift assay. It counts as biochemical. From the text:
(§1) Compounds against MET, SRC and CSF1R kinases were screened by use of mobility shift assay. The core of this screening platform was the MSA based on microfluidic chip technology, which applied the basic idea of capillary electrophoresis to a microfluidic environment. The substrate used in the experiment was a polypeptide with fluorescent labeling. Under the catalysis of the enzyme in the reaction system, the substrate was converted into a product, and it carried charge also changed accordingly. MSA utilized the difference in charge between the substrate and the product to separate them, and detect them separately.
(§2) The operation method is briefly described as follows:
(§3) The powders of the compound were dissolved in 100% DMSO to make a 10 mM stock solution. The initial test concentration of the compound was 10,000 nM, 3-fold serial dilution, 10 concentrations, and repeated hole detection. […] A stop detection solution was added to stop the enzymatic reaction, and the conversion rate was read with Caliper EZ Reader II.
(§4) wherein: Conversion%_sample is the conversion rate reading of the sample; Conversion%_min: the average value of the negative control wells, representing the conversion rate readings of the wells without enzyme activity; Conversion%_max: the average ratio of the positive control wells, representing the conversion rate readings of the wells without compound inhibition.
(§5) Dose-response curve fitting: with the log value of the concentration as the X-axis, and the percentage inhibition rate as the Y-axis, the log(inhibitor) vs. response-Variable slope of the analysis software GraphPad Prism 5 was used to fit the dose-response curve, thereby obtaining IC50 values of each compound against inhibition of enzyme activity.

For a further data set, the target named is c-Met (Homo sapiens (Human), UniProt P08581). Description: Enzymatic inhibitory activity, mobility shift assay, c-Met. The settings on record: kinase mobility shift assay. It counts as biochemical.
c-Met, sequence (P08581 25-1390): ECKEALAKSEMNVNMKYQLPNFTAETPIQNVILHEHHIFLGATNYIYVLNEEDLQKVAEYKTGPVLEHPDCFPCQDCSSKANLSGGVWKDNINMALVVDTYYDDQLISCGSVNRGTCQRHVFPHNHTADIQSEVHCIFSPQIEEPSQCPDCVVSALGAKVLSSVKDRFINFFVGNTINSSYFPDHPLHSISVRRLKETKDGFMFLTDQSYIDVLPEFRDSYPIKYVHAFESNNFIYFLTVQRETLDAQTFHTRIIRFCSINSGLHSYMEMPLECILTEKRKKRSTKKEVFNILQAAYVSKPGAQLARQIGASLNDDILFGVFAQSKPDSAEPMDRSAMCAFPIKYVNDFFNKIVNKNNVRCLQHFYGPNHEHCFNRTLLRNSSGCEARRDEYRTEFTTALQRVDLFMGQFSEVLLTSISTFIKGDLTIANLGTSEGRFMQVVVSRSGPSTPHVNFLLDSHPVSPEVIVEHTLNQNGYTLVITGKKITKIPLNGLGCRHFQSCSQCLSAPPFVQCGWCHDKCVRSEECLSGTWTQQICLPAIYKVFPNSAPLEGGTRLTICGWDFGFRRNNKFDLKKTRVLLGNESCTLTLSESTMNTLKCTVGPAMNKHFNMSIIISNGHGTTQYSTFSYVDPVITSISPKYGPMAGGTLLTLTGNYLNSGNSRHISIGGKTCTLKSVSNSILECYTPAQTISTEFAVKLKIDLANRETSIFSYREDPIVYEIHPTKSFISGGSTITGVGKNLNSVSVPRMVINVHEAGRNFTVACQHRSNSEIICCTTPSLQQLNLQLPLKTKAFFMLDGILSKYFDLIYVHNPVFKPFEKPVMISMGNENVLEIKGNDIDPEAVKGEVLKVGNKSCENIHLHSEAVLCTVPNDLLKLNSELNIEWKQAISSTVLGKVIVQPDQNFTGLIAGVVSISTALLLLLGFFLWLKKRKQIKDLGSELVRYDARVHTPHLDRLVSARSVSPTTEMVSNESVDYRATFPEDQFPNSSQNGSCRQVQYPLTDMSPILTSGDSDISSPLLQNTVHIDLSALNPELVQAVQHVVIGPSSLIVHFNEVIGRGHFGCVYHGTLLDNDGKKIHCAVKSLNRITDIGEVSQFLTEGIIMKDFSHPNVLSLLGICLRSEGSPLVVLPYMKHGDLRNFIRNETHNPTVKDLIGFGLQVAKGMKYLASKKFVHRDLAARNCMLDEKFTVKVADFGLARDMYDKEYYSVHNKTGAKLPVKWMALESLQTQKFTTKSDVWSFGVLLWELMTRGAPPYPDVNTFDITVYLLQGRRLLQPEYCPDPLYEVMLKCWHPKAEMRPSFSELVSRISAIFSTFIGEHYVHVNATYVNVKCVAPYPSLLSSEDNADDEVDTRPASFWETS
Source text: as §1, §2, §3, §4, §5

The nature of data set [1]: Pharmacokinetic experiments in rats. The data set is classed as in vivo. The settings on record: male SD rats, 1 mg/kg, oral gavage and intravenous injection. As for the experimental part:
Male SD rats were divided into groups, 3 rats in each group, and the compound of the Examples (1 mg/kg) was given by oral, single gavage and intravenous injection, respectively. The animals were fasted overnight before the experiments, and the fasting time was from 10 hours before administration to 4 hours after administration. Blood was collected at 0.25, 0.5, 1, 2, 4, 8 and 24 hours after administration in the oral group, and at 0.083, 0.25, 0.5, 1, 2, 4, 8 and 24 hours after injection in the intravenous injection group. After anesthesia with isoflurane using a small animal anesthesia machine, 0.3 mL of whole blood was collected through the fundus venous plexus and placed in a heparin anticoagulant tube. The sample was centrifuged at 4° C.and 4000 rpm for 5 minutes, the plasma was transferred to a centrifuge tube, and placed at […] and stored until analysis. Plasma samples were extracted by protein precipitation, and the extract was analyzed by LC/MS/MS.

Another data set relates to Ba/F3-TEL-CSF1R. Nature of the data set: Cell viability assay against Ba/F3-TEL-CSF1R cells (CellTiter-Glo). The data set is classed as cell-based. The settings on record: 72 hours, read-out: Baf3-TEL CSF1R IC50. As to the method: (§6) Starting from 200 μM, the compound was subjected to a 3-fold gradient with DMSO, and a total of 9 concentrations were diluted to prepare a 200-fold drug solution. 3 μl of the 200-fold concentration compound was diluted with 197 μl of complete medium to obtain a 3-fold concentration compound. 50 μl of the latter was took and added to the cell well plate, and culture was continued for 72 hours. The cell culture plate was equilibrated to room temperature before assay, and 40 μL of CellTiter-Glo (Promega, Cat# G7571) was added to each well, and the cells were lysed by shaking for two minutes. The cell plate was then left at room temperature for 60 minutes to stabilize the luminescence signal. Luminescence values were read using a PerkinElemer Envision multifunctional plate reader.
(§7) Data analysis: • Luminescence values were processed using the following formula:
(§8) %Inh=(Max signal−Compound signal)/(Max signal−Min signal)×100 • Max signal: value of a DMSO treatment group; • Min signal: value of a blank medium group.
(§9) The processed data were analyzed using GraphPad Prism 5.0 software, and nonlinear S-curve regression was used to fit the data to derive dose-response curves from which IC50 values were calculated.
(In general: ATP-based viability assays read luminescence as a measure of living cells.)

The next data set has as its system SNU-5 cells. Nature of the data set: Cell viability assay against SNU-5 cells (CellTiter-Glo). It counts as cell-based. The settings on record: Homo sapiens, 72 hours. As to the method:
Human gastric cancer cell line SNU-5 culture medium was IMDM basal culture medium supplemented with 10% FBS (fetal bovine serum) and 1% P/S (penicillin/streptomycin), Ba/F3-TEL-CSF1R stably transfected cell line medium was RPMI-1640 medium supplemented with 10% FBS and 1% P/S. Both cell lines were cultured in a carbon dioxide incubator at 37° C. with a CO2 concentration of 5%.
as §6, with “In the assay of compounds, SNU-5 and Ba/F3-TEL-CSF1R cells were plated in 96-well cell culture plates (Corning, Cat# 3610) at a concentration of 3000 cells/100 μL per well, and cultured overnight. Starting” for “Starting”
as §7, §8, §9

Data set [2] concerns HCC827 cells (MET overexpression). Nature of the data set: Synergistic killing of tumor cells with AZD9291, HCC827. The data set is classed as cell-based, human. The settings on record: 72 hours. As to the method: (§10) Human lung cancer cells H1975 cells (L858R and T790M double mutations) and HCC827 cells were incubated in an incubator (37° C., 5% CO2) with 1640 medium plus 10% FBS (fetal bovine serum) and 1% P/S (penicillin/ streptomycin) for culture. In the assay of the compound, H1975 cells or HCC827 were plated in a 96-well plate (Corning) at a concentration of 3000 cells/195 μL per well, and the compound was serially diluted to 11 concentrations starting from 10 mM, and 4 μL of each concentration was added into 96 μL of 1640 cluture medium and diluted to form 25× compound, then 5 μL was took and added to 195 μL of cell culture medium (DMSO final concentration is 0.1%, v/v). After 72 hours of treatment, 35 μL of CellTiter-Blue® (purchased from Promega) was added. The fluorescent signal was measured on Flex Station3 (Molecular Devices) according to the operating procedure of the manual, and the IC50 value of inhibition on cell proliferation of the compound was calculated using GraphPad Prism5.0. The Chou-Talalay combination index method was used to calculate the effect of the combination. The combination index (Col) value 0.9≤CI≤1.1 is an additive effect, 0.8≤CI<0.9 is a low synergistic effect, 0.6≤CI<0.8 is a moderate synergistic effect, and 0.4 <CI<0.6 is highly synergistic, and 0.2≤CI<0.4 is strong synergistic.

Data set [3] concerns H1975 cells (L858R and T790M double mutations). Nature of the data set: Synergistic killing of tumor cells with AZD9291, H1975. The settings on record: 72 hours. The data set is classed as cell-based, human. As to the method:
as §10

Another data set deals with HCC827 cells. Nature of the data set: Cell viability assay against HCC827 cells (CellTiter-Glo). The data set is classed as cell-based, human. The settings on record: 72 hours. As for the experimental part:
Human non-small cell lung cancer cells, HCC827 cells, were cultured in an incubator (37° C., 5% CO2) with 1640 medium plus 10% FBS (fetal bovine serum) and 1% P/S (penicillin/streptomycin). In the assay of the compound, the HCC827 cells were plated in a 96-well transparent flat-bottomed black wall plate (Corning, Cat# 3603) at a concentration of 3000 cells/90 uL per well, and the compound was diluted 11 times in a 3-fold gradient starting from 10 mM, and prepared a 10-fold drug solution. Then 10 μL was taken and added to 90 μL of cell culture medium (DMSO final concentration was 0.1%, v/v). After 72 hours of treatment, 100 μL of CellTiter-Glo (Promega, Cat#G7572) was added, cells were lysed by shaking on an orbital shaker for 5 minutes. The cell plate was then left at room temperature for 20 minutes to stabilize the luminescence signal. Luminescence values were read with a SpectraMax Multilabel Microplate Reader (MD, 2104-0010A).
Data were analyzed using GraphPad Prism 5.0 software, and nonlinear S-curve regression was used to fit the data to derive dose-response curves from which IC50 values were calculated.
Cell Viability (%)=(Lumdrug to be tested−Lumculture medium control)/(Lumcell control−Lumculture medium control)×100%.

A short description of data set [4]: Blood-brain distribution experiments in rats. The data set is classed as in vivo. The settings on record: male SD rats. As to the method: The male SD rats were divided into groups, 12 in each group, and the compound of the Examples (10 mg/kg) was administered orally or by gavage. The animals were fasted overnight before the experiments, and the fasting time was from 10 hours before administration to 4 hours after administration. According to the previous pharmacokinetic data, the rats in the Example 1 group were killed at 0.25, 0.5, 2 and 6 hours after administration; the rats in the TPX-0022 group were killed at 0.25, 1, 4 and 8 hours after administration, and blood and brain tissue were collected. After the samples were processed, they were centrifuged at 4° C., 4000 rpm for 5 min, and the plasma was transferred to a centrifuge tube and stored at −80° C.until analysis. Plasma samples were extracted by protein precipitation, and the extract was analyzed by LC/MS/MS.

Consider four molecules from patent US20240132517A1, “MACROCYCLIC COMPOUND, PHARMACEUTICAL COMPOSITION, AND USE THEREOF” (GOHARMONY THERAPEUTICS (SHENZHEN) CO., LTD., priority 2021, published 2024).

pIC50: −log10 of the molar value.

CSF1R, sequence (P07333 20-972): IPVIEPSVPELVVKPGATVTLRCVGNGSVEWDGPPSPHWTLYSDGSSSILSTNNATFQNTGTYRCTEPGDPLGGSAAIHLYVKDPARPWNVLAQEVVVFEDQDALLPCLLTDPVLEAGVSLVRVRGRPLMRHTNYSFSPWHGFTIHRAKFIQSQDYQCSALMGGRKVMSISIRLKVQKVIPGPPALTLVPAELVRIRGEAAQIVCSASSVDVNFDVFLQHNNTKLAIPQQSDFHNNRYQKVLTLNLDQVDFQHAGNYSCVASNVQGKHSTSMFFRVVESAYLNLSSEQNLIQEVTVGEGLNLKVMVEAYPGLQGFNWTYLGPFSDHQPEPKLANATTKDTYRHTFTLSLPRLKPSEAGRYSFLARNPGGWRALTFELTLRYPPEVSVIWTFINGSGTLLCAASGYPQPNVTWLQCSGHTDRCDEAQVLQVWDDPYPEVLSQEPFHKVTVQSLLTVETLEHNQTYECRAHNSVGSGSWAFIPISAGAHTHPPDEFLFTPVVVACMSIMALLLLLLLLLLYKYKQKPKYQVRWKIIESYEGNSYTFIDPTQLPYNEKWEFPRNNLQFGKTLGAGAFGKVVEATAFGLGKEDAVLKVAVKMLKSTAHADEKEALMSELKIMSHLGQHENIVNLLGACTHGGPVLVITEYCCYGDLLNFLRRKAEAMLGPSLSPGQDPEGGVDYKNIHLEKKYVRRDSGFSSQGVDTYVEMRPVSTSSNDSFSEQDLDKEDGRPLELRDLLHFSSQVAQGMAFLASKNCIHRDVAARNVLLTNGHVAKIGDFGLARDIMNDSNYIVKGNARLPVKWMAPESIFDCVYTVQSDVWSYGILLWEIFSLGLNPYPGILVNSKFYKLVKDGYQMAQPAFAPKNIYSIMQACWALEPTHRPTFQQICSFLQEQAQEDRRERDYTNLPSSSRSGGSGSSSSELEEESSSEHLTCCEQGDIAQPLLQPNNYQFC
SRC, sequence (P12931 whole entry, looked up): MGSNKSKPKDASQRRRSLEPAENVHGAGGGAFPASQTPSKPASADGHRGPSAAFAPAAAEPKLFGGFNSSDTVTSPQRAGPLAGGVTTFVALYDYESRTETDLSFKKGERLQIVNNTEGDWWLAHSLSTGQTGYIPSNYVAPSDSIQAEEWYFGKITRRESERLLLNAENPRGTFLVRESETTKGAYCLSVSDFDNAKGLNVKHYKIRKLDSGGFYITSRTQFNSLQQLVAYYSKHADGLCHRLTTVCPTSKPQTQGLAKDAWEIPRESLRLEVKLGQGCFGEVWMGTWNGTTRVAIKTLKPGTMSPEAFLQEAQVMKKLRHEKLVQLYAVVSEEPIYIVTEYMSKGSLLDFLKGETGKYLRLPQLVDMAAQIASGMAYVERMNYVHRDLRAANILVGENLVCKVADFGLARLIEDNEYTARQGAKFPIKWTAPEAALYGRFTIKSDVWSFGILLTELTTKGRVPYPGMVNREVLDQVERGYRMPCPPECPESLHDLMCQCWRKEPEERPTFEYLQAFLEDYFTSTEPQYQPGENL
Protocol for SRC: The powders of the compound were dissolved in 100% DMSO to make a 10 mM stock solution. […] A stop detection solution was added to stop the enzymatic reaction, and the conversion rate was read with Caliper EZ Reader II.

Usually pIC50 stands for the IC50 on a negative log10 scale, so that one unit is a factor of ten. On to `C[C@H]1COC(=O)c2cnn3ccc(nc23)N[C@H](C)c2cc(F)ccc2O1` [Comparative Compound 42, reference compound], for which the pIC50 at SRC is 6.54; at CSF1R it was less than 5.00; on c-Met, 7.07.

With `CCN1Cc2c(ccc(F)c2C#N)O[C@@H](C)COC(=O)c2c(N)nn3ccc1nc23` [Example 2, (S, 1^3E, 1^4E)-1^2-amino-2-ethyl-4^5-fluoro-6-methyl-9-oxo-5,8-dioxa-2-aza-1(5,3)-pyrazolo[1,5-a]pyrimidine-4(1,2)-benzocyclononane-4^6 carbonitrile], the pharmacokinetic properties entry in data set [1] is “better pharmacokinetic and pharmacokinetic properties”. In addition, the pIC50 is 7.52 on SRC; 8.15 in the data set with Ba/F3-TEL-CSF1R; 8.66 at CSF1R; 8.47 with SNU-5 cells; 8.74 at c-Met.

In the case of `CCN1Cc2c(ccc(F)c2C#N)O[C@@H](C)COC(=O)c2cnn3ccc1nc23` [Example 1, (S, 1^3E, 1^4E)-2-ethyl-45-fluoro-6-methyl-9-oxo-5,8-dioxa-2-aza-1(5,3)-pyrazolo[1,5-a]pyrimidine-4(1,2)-benzocyclononane-4^6-carbonitrile], the pharmacokinetic properties result in data set [1] is “better pharmacokinetic and pharmacokinetic properties”. In addition, the “combination effect with AZD9291 (Chou-Talalay combination index)” value in data set [2] and in data set [3] was “moderate to high synergistic effect” each time. Further, the pIC50 on SRC is 7.82; in the data set on Ba/F3-TEL-CSF1R, 8.47; at CSF1R it was 9.38; in the data set on SNU-5 cells it was 8.74; at c-Met, 9.03. Further, the “inhibitory effect on HCC827 cells” value in the data set with HCC827 cells is given as “very obvious inhibitory effect”. Further, the Kp in data set [4] (Sprague-Dawley (SD), rat, brain / plasma, oral, 10 mg/kg gavage, 0.25, 0.5, 2 and 6 hours, read-out: drug brain/blood distribution ratio) lay in the range of 1.16 to 6.4. For the same molecule, the “entry into brain tissue” value in data set [4] (10 mg/kg gavage) is recorded as “can enter the brain tissue”.

In the case of `CCN1Cc2c(ccc(F)c2C#N)O[C@@H](C)CNC(=O)c2c(N)nn3ccc1nc23` [TPX-0022, reference compound], the pIC50 on SRC was 8.12; with SNU-5 cells it was 8.20.
